Assay results as given in patent publication US12655139B2, “Isoxazolidines as RIPK1 inhibitors and use thereof” (SANOFI, priority 2020, dated 2026).
Where two headings read alike, the source gives them in different places. One block for each compound: values may come before it.

How the values were obtained:
[1] = test system: U937 cells; details: Comparator table 5; data from P.A. Harris et al. J Med Chem 2019, 62, 5096; cited from earlier work
[2] = Pharmacokinetic studies in mice, intravenous application with non-serial sampling; type: in vivo
Experimental: Intravenous Application with Non-Serial Sampling Compound K
A solution of the respective test articles (3 mg/kg, 5 mL/kg, 0.6 mg/mL) was prepared by dissolving the solids in 7.5% N-Methyl pyrrolidon followed by addition of 60% PEG200 and 32.5% water for injection. Intravenous administration to 24 (3×8, groups per time) non-fasted male C57BL/6 mice (20-25 g) followed immediately after preparation. Terminal blood sampling (with the addition of K2-EDTA) was performed at 0.083, 0.25, 0.5, 1, 2, 4, 8 and 24 h post admin. Plasma was generated by centrifugation and deep-frozen (−20° C.). In addition, brain and liver were removed from all animals. The organs were pooled per time group, homogenized and the homogenate extracted with an acetonitrile-water mixture prior to measurement by HPLC-MS/MS. The brain/plasma ratio was determined by dividing the brain concentration through the respective value for the plasma concentration at the same sampling time.

[3] = target: T1, hRIPK1 (aa 1-375) fusion protein (Homo sapiens, UniProt Q13546); test: ADP-Glo kinase assay, RIPK1 autophosphorylation; type: biochemical; details: Comparator table 5
T1 construct: hRIPK1 (aa 1-375) fusion protein
T1 sequence (Q13546 1-375): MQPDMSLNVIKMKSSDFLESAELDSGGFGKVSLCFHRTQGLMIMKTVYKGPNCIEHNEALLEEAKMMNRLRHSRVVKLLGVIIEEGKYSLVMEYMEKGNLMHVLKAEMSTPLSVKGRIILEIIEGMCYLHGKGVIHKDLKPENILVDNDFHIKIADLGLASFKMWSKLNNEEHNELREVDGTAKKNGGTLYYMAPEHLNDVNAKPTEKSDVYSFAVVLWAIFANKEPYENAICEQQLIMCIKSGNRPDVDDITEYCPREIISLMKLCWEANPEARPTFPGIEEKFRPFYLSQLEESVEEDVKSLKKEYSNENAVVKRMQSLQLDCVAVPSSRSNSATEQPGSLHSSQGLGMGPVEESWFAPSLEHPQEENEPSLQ

[4] = test system: U937 cells; test: Cellular assay in U937 cells on cell death (necroptosis), TNFα/zVAD.fmk; type: cell-based; details: Homo sapiens, U-937, Comparator table 5; read-out: U937 IC50 (uM) Mean
Outline: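 U937 cells with 100 ng/ml TNFα plus 50 μM zVAD.fmk (pre-addition suspension levels) received 10 compound concentrations (10 μM–0.26 nM or 1 μM–0.07 nM) for 18–24 h at 37 °C. Live cells were read by MTS formazan absorbance at 490 nm after 4 h. % inhibition is relative to the maximal value without TNFα/zVAD.fmk.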

[5] = monkeys, doses ≥100 mg/kg; cited from earlier work
[6] = Pharmacokinetic studies in mice, oral application; type: in vivo; details: male, C57BL/6, brain / plasma; mouse, 2 h after oral application of 30 mg/kg; read-out: brain/plasma ratio
Experimental: Pharmacokinetic Studies in Mice
A suspension of the respective test articles (30 mg/kg, 10 ml/kg, 3 mg/ml) was prepared in 0.6% methyl cellulose (MC) by thorough mixing of the fine solid with the freshly made and filtered MC solution and administered to 24 non-fasted male C57BL/6 mice (20-25 g) by gavage. Terminal blood sampling (with the addition of K2-EDTA) was performed at 0.25, 0.5, 1, 2, 4, 6, 8 and 24 h post admin. Plasma was generated by centrifugation and deep-frozen (−20° C.). In addition, after 2 h, brain and liver were removed from the respective 3 mice. Additional plasma was collected from terminal blood. The organs were pooled, homogenized and the homogenate extracted with an acetonitrile-water mixture prior to measurement by HPLC-MS/MS. The brain/plasma ratio was determined at 2 h by dividing the brain concentration at 2 h through the respective value for the plasma concentration at 2 h.
Ex. 004: 21 mice were used in the study, without the 6 h sampling time. The same study design was applied.
A suspension of the respective test articles (30 mg/kg, 10 ml/kg, 3 mg/ml) was prepared in freshly prepared and filtered 0.6% methyl cellulose solution by wet-milling using Retsch MM 301 mixer mill (10 min, room temperature) and administered to 6 non-fasted male C57BL/6 mice (20-25 g) by gavage. Serial sampling of blood (with the addition of K3-EDTA) was performed at 0.25, 0.5, 1, 2, 4, 6, 8 and 24 h post admin. The blood samples were diluted (10 μl blood were added to a mixture of 90 μl 25% acetonitrile in water) and deep-frozen (−20° C.). After 2 h, 3 of the 6 animals were sacrificed and brain and liver taken off. Additional plasma was prepared from terminal blood. The organs were homogenized and the homogenate extracted with an acetonitrile-water mixture prior to measurement by HPLC-MS/MS. The brain/plasma ratio was determined at 2 h by dividing the brain concentration at 2 h through the respective value for the plasma concentration at 2 h.

[7] = Intravenous application to cynomolgus monkeys, side effects and histopathology; type: in vivo, cynomolgus monkey; details: 1 mg/kg, i.v.

Compound: CC(C)(C)C(=O)N1N=CC[C@H]1c1cc(F)cc(F)c1 [H]
IC50 [1]: 0.006 µM

Mouse PK brain/blood ratio ([2]; 15 min, i.v. 3 mg/kg): 2.1 (15 min i.v. 3 mg/kg)
IC50 [3]: 18 nM
Compound: COc1cc(N2CCC(C(=O)N3OCC[C@H]3c3cc(F)cc(F)c3)CC2)ncn1 [K, reference compound]
IC50 [4]: 0.01 µM

Compound: CN1C(=O)[C@@H](NC(=O)c2nnc(Cc3ccccc3)[nH]2)COc2ccccc21 [GSK2982772]
central side effects [5]: irregular gait and uncoordinated movement

Kp at 2 h [6]: 1.6
Kp at 15 min ([2]; male, C57BL/6, brain / plasma, iv, mouse, 15 min after i.v. application of 3 mg/kg, read-out: brain/blood ratio): 2.1
concentration at 15 min ([2]; male, C57BL/6, brain, iv, mouse, 15 min after i.v. application of 3 mg/kg, read-out: brain levels): 1580 ng/mL
Compound: COc1cc(N2CCC(C(=O)N3OCC[C@H]3c3cc(F)cc(F)c3)CC2)ncn1 [comparator compound K, [1-(6-Methoxypyrimidin-4-yl)-4-piperidyl]-[(3S)-3-(3,5-difluorophenyl)isoxazolidin-2-yl]methanone]
histopathological examination [7]: bilateral and symmetrical lesions of brain necrosis
side effects [7]: severe side effects
